Measured values taken from ChEMBL document CHEMBL1201862, “PubChem BioAssay data set” (2004).
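Cells were grown in 96-well plates and exposed to each compound for 48 hours at five concentrations; endpoints were interpolated linearly between bracketing concentrations, or set to the highest concentration if not reached. GI50 marks 50% less growth.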 Calls of active or inactive are those of the source. No stated cut-off is given here; in the data, active = GI50 up to about 1.1 µM and inactive = higher.

Experiments:
Assay in all cases: NCI-60 cell line screen, 48 h
[1] = tested on: LOX IMVI
[2] = tested on: HCT-15
[3] = tested on: M14
[4] = tested on: SK-MEL-28
[5] = tested on: NCI-H23
[6] = tested on: CCRF-CEM
[7] = tested on: SK-OV-3
[8] = tested on: A549
[9] = tested on: SF-268
[10] = tested on: COLO 205
[11] = tested on: MOLT-4
[12] = tested on: SK-MEL-2
[13] = tested on: U-251
[14] = tested on: HCC 2998
[15] = tested on: UO-31
[16] = tested on: RXF 393
[17] = tested on: OVCAR-5
[18] = tested on: OVCAR-4
[19] = tested on: EKVX
[20] = tested on: SW-620

| SMILES | GI50 [1] | GI50 [2] [µM] | GI50 [3] | GI50 [4] | GI50 [5] | GI50 [6] | GI50 [7] | GI50 [8] | GI50 [9] | GI50 [10] | GI50 [11] | GI50 [12] | GI50 [13] | GI50 [14] | GI50 [15] | GI50 [16] | GI50 [17] | GI50 [18] | GI50 [19] | GI50 [20] |
| --- | --- | --- | --- | --- | --- | --- | --- | --- | --- | --- | --- | --- | --- | --- | --- | --- | --- | --- | --- | --- |
| c1ccc2cc3n[se]nc3cc2c1 | > 100 µM (inactive) | > 100 | > 100 µM (inactive) | > 100 µM (inactive) | 39.7 µM (inactive) | 32.5 µM (inactive) | > 100 µM (inactive) | 52.7 µM (inactive) | > 100 µM (inactive) | > 100 µM (inactive) | 75.5 µM (inactive) | > 100 µM (inactive) | > 100 µM (inactive) | 38.9 µM (inactive) | 55.8 µM (inactive) | > 100 µM (inactive) | > 100 µM (inactive) | > 100 µM (inactive) | > 100 µM (inactive) | > 100 µM (inactive) |
| COc1ccc2c(c1)CC1Cc3ccccc3CCN1C2 (stereo not given) | 20 µM (inactive) | 61.2 | 23.6 µM (inactive) | > 100 µM (inactive) | 70.3 µM (inactive) | 98.6 µM (inactive) | 20.5 µM (inactive) | 28.8 µM (inactive) | > 100 µM (inactive) | 35.5 µM (inactive) | 80.5 µM (inactive) | 44 µM (inactive) | 76 µM (inactive) | 35.2 µM (inactive) | 37.2 µM (inactive) | 25.7 µM (inactive) | 22.6 µM (inactive) | > 100 µM (inactive) | 59 µM (inactive) | 76 µM (inactive) |
